Experimental data taken from patent publication US20240067662A1, “KRAS INHIBITORS” (Bristol-Myers Squibb Company, priority 2022, published 2024).
pIC50: −log10 of the molar value.

biological target: GMPPNP-loaded KRAS G12C (Homo sapiens, UniProt P01116, G12C); assay: KRAS G12C RAF Disruption Assay (HTRF); assay type: biochemical; conditions: recombinant GMPPNP-loaded KRAS G12C (5 nM), 20 min with compound; GST-RAF1 RBD (9 nM); HTRF signal; read-out: KRASG12C RAF Disruption Assay (IC50)
Summary of the method: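 The read-out is an HTRF 520/495 emission ratio, with IC50 taken from dose-response curves. Compound was first incubated for 20 min at room temperature with active-state KRAS G12C (GMPPNP, 5 nM) in Tris pH 7.5/NaCl/MgCl2/DTT/BSA. RAF1 RBD-GST (9 nM, 20 min) and SA-Tb (0.25 nM, 3 h) were added in turn.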

| Compound | pIC50 |
| --- | --- |
| C#Cc1c(F)ccc2cccc(-c3ncc4c(N(C)[C@@H]5CCN(C(=O)/C(F)=C/c6nccs6)C5)nc(OC[C@@]56CCCN5C[C@H](F)C6)nc4c3F)c12 [Compound 118, (Z)-1-((R)-3-((7-(8-ethynyl-7-fluoronaphthalen-1-yl)-8-fluoro-2-(((2R, 7aS)-2-fluorotetrahydro-IH-pyrrolizin-7a(5H)-yl)methoxy)pyrido[4,3-d]pyrimidin-4-yl)(methyl)amino)pyrrolidin-1-yl)-2-fluoro-3-(thiazol-2-yl)prop-2-en-1-one] | 7.52 |
| N#CC[C@H]1CN(c2nc(OC[C@@]34CCCN3C[C@H](F)C4)nc3c(F)c(N4CCOc5cccc(F)c54)ncc23)CCN1C(=O)/C(F)=C/c1nccs1 [Example 61, 2-((S)-1-((Z)-2-fluoro-3-(thiazol-2-yl)acryloyl)-4-(8-fluoro-7-(5-fluoro-2,3-dihydro-4H-benzo[b][1,4]oxazin-4-yl)-2-(((2R, 7aS)-2-fluorotetrahydro-1H-pyrrolizin-7a(5H)-yl)methoxy)pyrido[4,3-d]pyrimidin-4-yl)piperazin-2-yl)acetonitrile] | 6.52 |
| (Z)-1-(4-(7-(2-amino-7-fluorobenzo[d]thiazol-4-yl)-8-fluoro-2-(((2R, 7aS)-2-fluorotetrahydro-1H-pyrrolizin-7a(5H)-yl)methoxy)pyrido[4,3-d]pyrimidin-4-yl)piperazin-1-yl)-2-fluoro-3-(thiazol-2-yl)prop-2-en-1-one [Example 68] | 6.66 |
| N#CC[C@H]1CN(c2nc(OC[C@@]34CCCN3C[C@H](F)C4)nc3c(F)c(-c4ccccc4C4CC4)ncc23)CCN1C(=O)/C(F)=C/c1nccs1 [Compound 80, 2-((2S)-4-(7-(2-cyclopropylphenyl)-8-fluoro-2-(((2R, 7aS)-2-fluorotetrahydro-1H-pyrrolizin-7a(5H)-yl)methoxy)pyrido[4,3-d]pyrimidin-4-yl)-1-((Z)-2-fluoro-3-(thiazol-2-yl)acryloyl)piperazin-2-yl)acetonitrile] | 7.52 |
| C#Cc1c(F)ccc2cc(O)cc(-c3ncc4c(N5C[C@H]6CC[C@@H](C5)N6C(=O)/C(F)=C/c5ccncn5)nc(OC[C@@]56CCCN5C[C@H](F)C6)nc4c3F)c12 [Compound 18, (Z)-1-((1R, 5S)-3-(7-(8-ethynyl-7-fluoro-3-hydroxynaphthalen-1-yl)-8-fluoro-2-(((2R, 7aS)-2-fluorotetrahydro-1H-pyrrolizin-7a(5H)-yl)methoxy)pyrido[4,3-d]pyrimidin-4-yl)-3,8-diazabicyclo[3.2.1]octan-8-yl)-2-fluoro-3-(pyrimidin-4-yl)prop-2-en-1-one] | 7.60 |
| C#Cc1ccc(F)c2cccc(-c3ncc4c(N5CCN(C(=O)/C(F)=C/c6ncccn6)CC5)nc(OC[C@@]56CCCN5C[C@H](F)C6)nc4c3F)c12 [Compound 97, (Z)-1-(4-(7-(8-ethynyl-5-fluoronaphthalen-1-yl)-8-fluoro-2-(((2R, 7aS)-2-fluorotetrahydro-1H-pyrrolizin-7a(5H)-yl)methoxy)pyrido[4,3-d]pyrimidin-4-yl)piperazin-1-yl)-2-fluoro-3-(pyrimidin-2-yl)prop-2-en-1-one] | 6.26 |
| CN1CCC[C@H]1COc1nc(N2CCN(C(=O)/C(F)=C/c3ccccn3)[C@@H](CC#N)C2)c2cnc(-c3cccc4ccccc34)c(F)c2n1 [Compound 19B, 2-((S)-4-(8-fluoro-2-(((S)-1-methylpyrrolidin-2-yl)methoxy)-7-(naphthalen-1-yl)pyrido[4,3-d]pyrimidin-4-yl)-1-((Z)-2-fluoro-3-(pyridin-2-yl)acryloyl)piperazin-2-yl)acetonitrile] | 6.57 |
| CCc1cccc2cccc(-c3ncc4c(N5CCN(C(=O)/C(F)=C/c6nccs6)[C@@H](CC#N)C5)nc(OC[C@@H]5CCCN5C)nc4c3F)c12 [Example 24, 2-((S)-4-(7-(8-ethylnaphthalen-1-yl)-8-fluoro-2-(((S)-1-methylpyrrolidin-2-yl)methoxy)pyrido[4,3-d]pyrimidin-4-yl)-1-((Z)-2-fluoro-3-(thiazol-2-yl)acryloyl)piperazin-2-yl)acetonitrile] | 6.96 |
| N#Cc1cccc2[nH]cc(-c3ncc4c(N5CCN(C(=O)/C(F)=C/c6nccs6)CC5)nc(OC[C@@]56CCCN5C[C@H](F)C6)nc4c3F)c12 [Compound 134, 3-(8-fluoro-4-(4-((Z)-2-fluoro-3-(thiazol-2-yl)acryloyl)piperazin-1-yl)-2-(((2R, 7aS)-2-fluorotetrahydro-1H-pyrrolizin-7a(5H)-yl)methoxy)pyrido[4,3-d]pyrimidin-7-yl)-1H-indole-4-carbonitrile] | 6.01 |
| C#Cc1cccc2cccc(-c3ncc4c(N(C)C5CCN(C(=O)/C(F)=C/c6ccccn6)C5C)nc(OC[C@@]56CCCN5C[C@H](F)C6)nc4c3F)c12 (single isomer, unassigned) [Example 74 cis isomer 2] | 6.04 |
| C#Cc1cccc2cccc(-c3ncc4c(N5CCN(C(=O)/C(F)=C/c6ncccn6)CC5)nc(OC[C@@]56CCCN5C[C@H](F)C6)nc4c3F)c12 [Compound 123, (Z)-1-(4-(7-(8-ethynylnaphthalen-1-yl)-8-fluoro-2-(((2R, 7aS)-2-fluorotetrahydro-1H-pyrrolizin-7a(5H)-yl)methoxy)pyrido[4,3-d]pyrimidin-4-yl)piperazin-1-yl)-2-fluoro-3-(pyrimidin-2-yl)prop-2-en-1-one] | 6.73 |
| C#Cc1cccc2cccc(-c3ncc4c(N5C[C@H](C)N(C(=O)/C(F)=C/c6ccccn6)C[C@H]5C)nc(OC[C@@]56CCCN5C[C@H](F)C6)nc4c3F)c12 [Compound 83, (Z)-1-((2S,5R)-4-(7-(8-ethynylnaphthalen-1-yl)-8-fluoro-2-(((2R, 7aS)-2-fluorotetrahydro-1H-pyrrolizin-7a(5H)-yl)methoxy)pyrido[4,3-d]pyrimidin-4-yl)-2,5-dimethylpiperazin-1-yl)-2-fluoro-3-(pyridin-2-yl)prop-2-en-1-one] | 5.59 |
| CN1CCC[C@H]1COc1nc(N2CCN(C(=O)/C(F)=C/c3nccs3)[C@@H](CC#N)C2)c2cnc(-c3cccc4ccc(F)cc34)c(F)c2n1 [Example 37, 2-((S)-1-((Z)-2-fluoro-3-(thiazol-2-yl)acryloyl)-4-(8-fluoro-7-(7-fluoronaphthalen-1-yl)-2-(((S)-1-methylpyrrolidin-2-yl)methoxy)pyrido[4,3-d]pyrimidin-4-yl)piperazin-2-yl)acetonitrile] | 6.89 |
| C#Cc1cccc2cccc(-c3ncc4c(N5CCN(C(=O)/C(Cl)=C/c6ccccn6)CC5)nc(OC[C@@]56CCCN5C[C@H](F)C6)nc4c3F)c12 [Compound 126, (Z)-2-chloro-1-(4-(7-(8-ethynylnaphthalen-1-yl)-8-fluoro-2-(((2R, 7aS)-2-fluorotetrahydro-1H-pyrrolizin-7a(5H)-yl)methoxy)pyrido[4,3-d]pyrimidin-4-yl)piperazin-1-yl)-3-(pyridin-2-yl)prop-2-en-1-one] | 4.33 |
| C#Cc1c(F)ccc2cc(O)cc(-c3ncc4c(N5CC6CCC(C5)N6C(=O)/C(Cl)=C/c5ccccn5)nc(OC[C@@]56CCCN5C[C@H](F)C6)nc4c3F)c12 [Compound 8, (Z)-1-((1R, 5S)-3-(7-(8-ethynyl-7-fluoro-3-hydroxynaphthalen-1-yl)-8-fluoro-2-(((2R, 7aS)-2-fluorotetrahydro-1H-pyrrolizin-7a(5H)-yl)methoxy)pyrido[4,3-d]pyrimidin-4-yl)-3,8-diazabicyclo[3.2.I]octan-8-yl)-2-chloro-3-(pyridin-yl)prop-2-en-1-one] | 5.89 |
| C#Cc1cccc2cccc(-c3ncc4c(N5CC[C@@H]6CN(C(=O)/C(F)=C/c7ccccn7)C[C@@H]65)nc(OC[C@@]56CCCN5C[C@H](F)C6)nc4c3F)c12 [Compound 85, (Z)-1-((3aR, 6aR)-1-(7-(8-ethynylnaphthalen-1-yl)-8-fluoro-2-(((2R, 7aS)-2-fluorotetrahydro-1H-pyrrolizin-7a(5H)-yl)methoxy)pyrido[4,3-d]pyrimidin-4-yl)hexahydropyrrolo[3,4-b]pyrrol-5(1H)-yl)-2-fluoro-3-(pyridin-2-yl)prop-2-en-1-one] | 6.96 |
| C#Cc1cccc2cccc(-c3ncc4c(N5CC[C@@H]6CN(C(=O)/C(F)=C/c7ncccn7)C[C@@H]65)nc(OC[C@@]56CCCN5C[C@H](F)C6)nc4c3F)c12 [Compound 86, (Z)-1-((3aR, 6aR)-1-(7-(8-ethynylnaphthalen-1-yl)-8-fluoro-2-(((2R, 7aS)-2-fluorotetrahydro-1H-pyrrolizin-7a(5H)-yl)methoxy)pyrido[4,3-d]pyrimidin-4-yl)hexahydropyrrolo[3,4-b]pyrrol-5(1H)-yl)-2-fluoro-3-(pyrimidin-2-yl)prop-2-en-1-one] | 6.96 |
| N#CC[C@H]1CN(c2nc(OC[C@@]34CCCN3C[C@H](F)C4)nc3c(F)c(N4CCOc5cccc(F)c54)ncc23)CCN1C(=O)/C(F)=C/c1ccccn1 [Example 60, 2-((S)-1-((Z)-2-fluoro-3-(pyridin-2-yl)acryloyl)-4-(8-fluoro-7-(5-fluoro-2,3-dihydro-4H-benzo[b][1,4]oxazin-4-yl)-2-(((2R, 7aS)-2-fluorotetrahydro-1H-pyrrolizin-7a(5H)-yl)methoxy)pyrido[4,3-d]pyrimidin-4-yl)piperazin-2-yl)acetonitrile] | 6.74 |
| N#Cc1c(N)sc2c(F)ccc(-c3ncc4c(N5CCN(C(=O)/C(F)=C/c6nccs6)CC5)nc(OC[C@@]56CCCN5C[C@H](F)C6)nc4c3F)c12 [Compound 122, 2-amino-7-fluoro-4-(8-fluoro-4-(4-((Z)-2-fluoro-3-(thiazol-2-yl)acryloyl)piperazin-1-yl)-2-(((7aS)-2-fluorotetrahydro-1H-pyrrolizin-7a(5H)-yl)methoxy)pyrido[4,3-d]pyrimidin-7-yl)benzo[b]thiophene-3-carbonitrile] | 8.22 |
